Patent US8414938B2, “Schisandrae fructus extracts for inhibition or prevention of H1N1 influenza virus infection and its application thereof” (National Defense Medical Center, priority 2011, dated 2013)
Converted amounts (≈) assume the structure as drawn. Read-outs that look alike come from different tables or passages of the source.

Experiments:
[1] = tested on: MDCK cells; assay: MTT cell survival of MDCK cells treated with sample alone (D group, pharmacotoxicity)
[2] = tested on: MDCK cells; settings: dog
[3] = tested on: influenza virus H1N1; assay: organism not typed; assay type: cell-based; settings: for MIC: read-out: MIC, H1N1
[4] = 6.25 μg/ml, compound and H1N1 at the same time, MDCK (Table 10)
[5] = 10 μg/ml, compound and H1N1 0.01 MOI at the same time, MDCK, 48 hrs (Table 9)
[6] = 12.5 μg/ml, compound and H1N1 at the same time, MDCK (Table 10)
[7] = 25 μg/ml, compound and H1N1 at the same time, MDCK (Table 10)
[8] = 50 μg/ml, compound and H1N1 0.01 MOI at the same time, MDCK, 48 hrs (Table 9)
[9] = 50 μg/ml, compound and H1N1 at the same time, MDCK (Table 10)
[10] = 75 μg/ml, compound and H1N1 at the same time, MDCK (Table 10)
[11] = 100 μg/ml, compound and H1N1 at the same time, MDCK (Table 10)
[12] = influenza virus H1N1, MDCK cells, MTT

| Compound | cell survival ratio, D ([1]; 6.25 μg/ml) | pharmaceutical toxicity / cytotoxicity [2] | cell survival ratio, D + V [3, 4] | cell survival ratio, D + V [3, 5] | cell survival ratio, D + V [3, 6] | cell survival ratio, D + V [3, 7] | cell survival ratio, D + V [3, 8] | cell survival ratio, D + V [3, 9] | cell survival ratio, D + V [3, 10] | cell survival ratio, D + V [3, 11] | MIC [3, 12] | cell survival ratio, D ([1]; 12.5 μg/ml) | MIC [3] | MIC, H1N1 [3, 12] |
| --- | --- | --- | --- | --- | --- | --- | --- | --- | --- | --- | --- | --- | --- | --- |
| COc1cc2c(cc1O)C(=O)[C@@H](C)[C@@H](C)[C@@H]2c1ccc(OC)c(OC)c1 [Schisandrone] | ++++ (key: +/−: cell survival ratio ≦25%; +: >25% but ≦50%; ++: >50% but ≦75%; +++: >75% but ≦100%; ++++: >100%) | 100 µg/mL | + (>25% but ≦50%) | ++ (>50% but ≦75%) | ++++ (>100%) | ++++ (>100%) | ++++ (>100%) | ++++ (>100%) | ++++ (>100%) | +/− (cell survival ratio of ≦25%) | 12.5 µg/mL (≈ 35.1 µM) | – | – | – |
| COc1cc2c(c(OC)c1OC)-c1c(cc3c(c1OC)OCO3)C[C@H](C)[C@@](C)(O)[C@H]2OC(=O)c1ccccc1 (atropisomer, axis not shown) [Benzoylgomisin P] | – | more than 100 μg/ml | ++ (>50% but ≦75%) | +++ (>75% but ≦100%) | – | ++++ (>100%) | ++++ (>100%) | ++++ (>100%) | ++++ (>100%) | ++++ (>100%) | – | ++++ (key: +/−: cell survival ratio ≦25%; +: >25% but ≦50%; ++: >50% but ≦75%; +++: >75% but ≦100%; ++++: >100%) | 12.5 µg/mL (≈ 23.3 µM) | – |
| COc1cc([C@@H]2c3cc(OC)c(O)cc3C(=O)[C@@H](C)[C@H]2C)ccc1O [Wulignan A1] | – | more than 100 μg/ml | ++ (>50% but ≦75%) | ++ (>50% but ≦75%) | +++ (>75% but ≦100%) | ++++ (>100%) | ++++ (>100%) | ++++ (>100%) | ++++ (>100%) | ++++ (>100%) | – | ++++ (key: +/−: cell survival ratio ≦25%; +: >25% but ≦50%; ++: >50% but ≦75%; +++: >75% but ≦100%; ++++: >100%) | 12.5 µg/mL (≈ 36.5 µM) | – |
| NC(=O)c1ncn([C@@H]2O[C@H](CO)[C@@H](O)[C@H]2O)n1 [Ribavirin, ribavirin, reference compound] | – | – | – | – | – | – | – | – | – | – | – | – | 3.12 µg/mL (≈ 12.8 µM) | – |
| COc1cc([C@@H]2c3cc(OC)c(O)cc3C(=O)[C@H](C)[C@H]2C)ccc1O [Epiwulignan A1] | – | more than 100 μg/ml | + (>25% but ≦50%) | + (>25% but ≦50%) | – | +++ (>75% but ≦100%) | ++++ (>100%) | ++++ (>100%) | ++++ (>100%) | ++++ (>100%) | 25 µg/mL (≈ 73 µM) | ++++ (key: +/−: cell survival ratio ≦25%; +: >25% but ≦50%; ++: >50% but ≦75%; +++: >75% but ≦100%; ++++: >100%) | – | 25.0 µg/mL (≈ 73 µM) |
| C/C=C(\C)C(=O)O[C@H]1c2cc(OC)c(OC)c(OC)c2-c2c(cc3c(c2OC)OCO3)C[C@H](C)[C@@]1(C)O (atropisomer, axis not shown) [Tigloylgomisin P] | – | more than 100 μg/ml | +/− (cell survival ratio of ≦25%) | +/− (cell survival ratio of ≦25%) | +/− (cell survival ratio of ≦25%) | + (>25% but ≦50%) | +++ (>75% but ≦100%) | ++++ (>100%) | ++++ (>100%) | ++++ (>100%) | 50 µg/mL (≈ 97.2 µM) | – | – | 50.0 µg/mL (≈ 97.2 µM) |
